# Source: patent US9492468B2, “Methods and compositions for treatment of acute heart failure” (PERICOR THERAPEUTICS, INC., priority 2008, dated 2016)
# Where a name gives a salt, the structure may show the parent alone.
# Assays:
# NT-ProBNP = assay: Plasma NT-proBNP (competitive ELISA), dose escalation study; assay type: in vivo, dog
# Protocol: Eight heart failure dogs described in Example 1 were used. Seven of 8 dogs underwent two studies, one with active drug GP-531 tartrate and one with vehicle (placebo) and 1 of 8 dogs underwent only one active drug GP-531 study. The order of active drug and placebo was randomized and performed about one week apart. In 6 of 8 dogs, after baseline hemodynamic, and ventriculographic measurements, vehicle was administered as a continuous intravenous infusion for one hour. At the end of one hour, the active drug GP-531 tartrate was administered in 3 escalating dose of continuous intravenous infusion with each dose maintained for one hour. At the end of the last drug dose, infusion was stopped and a washout period of one hour was instituted. The same infusion rates and times between doses were used when vehicle studies were performed. At the end of each hour, hemodynamic and angiographic measurements were made. Venous blood samples were obtained at baseline and at one hour after each dose. Blood samples (at least 10 mL) were centrifuged at 3000 rpm for 10 minutes and plasma withdrawn and placed in cryostorage tubes and stored upright at −20° C. for future use. In 2 of 8 dogs, active drug was administered as bolus followed by a constant infusion for 3 hours as noted below.
# Plasma biomarkers were measured in Groups I and II. Troponin I (TnI) was determined in plasma based on the principle of the double antibody sandwich enzyme-linked immunosorbent assay (ELISA) (Hirano, T., et al., Immunol Today 1990, 11:443-449) and n-terminal brain natriuretic peptide (NT-pro-BNP) based on competitive ELISA (Bonow, R. O. Circulation 1996, 93:1946-1950). Both biomarkers were assayed using commercially available assay kits. Kits for NT proBNP and TnI were purchased from ALPCO Diagnostics, Salem, N.H. Using standard curves and software, the concentration of each biomarker was expressed as ng/ml for TnI and fmol/ml for NT-proBNP.
# [1] = test system: dogs with advanced heart failure; assay: GP-531 infusion simultaneously with 8-SPT (non-selective adenosine antagonist); assay type: in vivo, dog; details: for Cardiac output (CO) / Heart rate (HR) / LV end-diastolic pressure (LVEDP) / LV end-diastolic volume (EDV) / LV end-systolic volume (ESV) / Mean aortic pressure (mAoP) / Stroke volume (SV) / Systemic vascular resistance (SVR): GP-531 infusion simultaneously with 8-SPT infusion
# Protocol: At the completion of the 6 hour constant infusion study, a secondary study was performed in 3 heart failure dogs to assess the effects of GP-531 in the presence of the non-selective adenosine antagonist 8-p-sulfophenyl theophylline (8-SPT). After baseline hemodynamic and ventriculographic measurements, 8-SPT was administered as 10 mg/kg intravenous bolus followed by 10 mg/kg/hr constant infusion for 3 hours. Infusion of GP-531 tartrate was initiated simultaneously with infusion of 8-SPT at a dose of 10 μg/kg/hr and also maintained for 3 hours. Hemodynamic and ventriculographic measurements were made at 1, 2 and 3 hours.
# All hemodynamic measurements were made during left and right heart catheterizations in anesthetized dogs at each specified study time point. Heart rate (HR), mean aortic pressure (mAoP), LV end-diastolic pressure (LVEDP), stroke volume (SV), cardiac output (CO) and systemic vascular resistance (SVR) were measured at each study time point. Left ventriculograms were performed during cardiac catheterization after completion of the hemodynamic measurements. Left ventriculograms were obtained with the dog placed on its right side and digitally recorded during the injection of 20 ml of contrast material (RENO-M-60 Squibb, Princeton, N.J.). Correction for image magnification was made using a radiopaque grid placed at the level of the LV. LV end-systolic (ESV) and end-diastolic volumes (EDV) were calculated from angiographic silhouettes using the area length method (Dodge H T, et al, Am J Cardiol. 1966; 18:10-24.). Premature beats and post-extra-systolic beats were excluded from the analysis. LV ejection fraction (EF) was calculated as the ratio of the difference of end-diastolic and end-systolic volumes to end-diastolic volume times 100, as described above.
# Within group hemodynamic and angiographic data were analyzed using repeated measures analysis of variance (ANOVA) with alpha set at 0.05. If the overall ANOVA was significant, then pairwise comparisons between baseline and drug or placebo dose/time point were performed using the Student-Newman-Keuls test. For this test, a p-value of <0.05 was considered significant. All data are reported as the mean±SEM.
# [2] = HF dogs n=3, administered simultaneously with 8-SPT, 3 h
structure (smiles),measurement,setting,value
"NC(=O)c1ncn(C2OC(CNCc3ccccc3)C(O)C2O)c1N [GP-531, 5-amino-1-β-D-(5-benzylamino-5-deoxy-1-β-D-ribofuranosyl)imidazole-4 carboxamide]",Plasma NT-ProBNP,"NT-ProBNP; Group I HF dogs n=3, 1 h washout after 30/100/300 μg/kg/min",204 ± 5 fmol/mL
same,Plasma NT-ProBNP,"NT-ProBNP; Group I HF dogs n=3, iv 30 μg/kg/min, 1 h",128 ± 23 fmol/mL
same,Plasma NT-ProBNP,"NT-ProBNP; Group I HF dogs n=3, iv 100 μg/kg/min, 1 h",131 ± 8 fmol/mL
same,Plasma NT-ProBNP,"NT-ProBNP; Group I HF dogs n=3, iv 300 μg/kg/min, 1 h",121 ± 13 fmol/mL
same,Plasma NT-ProBNP,"NT-ProBNP; Group II HF dogs n=3, 1 h washout after 3/10/30 μg/kg/min",179 ± 6 fmol/mL
same,Plasma NT-ProBNP,"NT-ProBNP; Group II HF dogs n=3, iv 3 μg/kg/min, 1 h",225 ± 34 fmol/mL
same,Plasma NT-ProBNP,"NT-ProBNP; Group II HF dogs n=3, iv 10 μg/kg/min, 1 h",155 ± 1 fmol/mL
same,Plasma NT-ProBNP,"NT-ProBNP; Group II HF dogs n=3, iv 30 μg/kg/min, 1 h",123 ± 21 fmol/mL
same,Cardiac output (CO),"[1]; HF dogs n=3, 1 h",1.51 ± 0.08 L/min
same,Heart rate (HR),"[1]; HF dogs n=3, 1 h",80 ± 4 beats/min
same,LV end-diastolic pressure (LVEDP),"[1]; HF dogs n=3, 1 h",16 ± 0.0 mmHg
same,LV end-diastolic volume (EDV),"[1]; HF dogs n=3, 1 h",69 ± 3 mL
same,LV end-systolic volume (ESV),"[1]; HF dogs n=3, 1 h",50 ± 3 mL
same,Mean aortic pressure (mAoP),"[1]; HF dogs n=3, 1 h",97 ± 9 mmHg
same,Stroke volume (SV),"[1]; HF dogs n=3, 1 h",19 ± 0.6 rnl
same,Systemic vascular resistance (SVR),"[1]; HF dogs n=3, 1 h",5089 ± 203 dynes-sec-cm^−5
same,Cardiac output (CO),"[1]; HF dogs n=3, 2 h",1.57 ± 0.15 L/min
same,Heart rate (HR),"[1]; HF dogs n=3, 2 h",81 ± 5 beats/min
same,LV end-diastolic pressure (LVEDP),"[1]; HF dogs n=3, 2 h",16 ± 0.3 mmHg
same,LV end-diastolic volume (EDV),"[1]; HF dogs n=3, 2 h",69 ± 3 mL
same,LV end-systolic volume (ESV),"[1]; HF dogs n=3, 2 h",49 ± 2 mL
same,Mean aortic pressure (mAoP),"[1]; HF dogs n=3, 2 h",82 ± 6 mmHg
same,Stroke volume (SV),"[1]; HF dogs n=3, 2 h",19 ± 0.9 rnl
same,Systemic vascular resistance (SVR),"[1]; HF dogs n=3, 2 h",4191 ± 84 dynes-sec-cm^−5
same,Cardiac output (CO),"[1]; HF dogs n=3, 3 h",1.53 ± 0.05 L/min
same,Heart rate (HR),"[1]; HF dogs n=3, 3 h",81 ± 6 beats/min
same,LV end-diastolic pressure (LVEDP),"[1]; HF dogs n=3, 3 h",16 ± 0.3 mmHg
same,LV end-diastolic volume (EDV),"[1]; HF dogs n=3, 3 h",68 ± 3 mL
same,LV end-systolic volume (ESV),"[1]; HF dogs n=3, 3 h",49 ± 3 mL
same,Mean aortic pressure (mAoP),"[1]; HF dogs n=3, 3 h",82 ± 7 mmHg
same,Stroke volume (SV),"[1]; HF dogs n=3, 3 h",19 ± 1.0 rnl
same,Systemic vascular resistance (SVR),"[1]; HF dogs n=3, 3 h",4297 ± 253 dynes-sec-cm^−5
same,Benefits on LV function in conjunction with 8-SPT,"[1]; HF dogs, administered in conjunction with 8-SPT, non-selective adenosine receptor antagonist",abolished
NC(=O)c1ncn(C2OC(CNCc3ccccc3)C(O)C2O)c1N (centres unmarked) [GP-531 tartrate],Effect on plasma NT-Pro-BNP,"NT-ProBNP; Group I HF dogs, all doses (30, 100, 300 μg/kg/min), vs baseline",decreased significantly
same,Effect on plasma NT-proBNP,"NT-ProBNP; Group II HF dogs, 3, 10, 30 μg/kg/min, significance only at 30 μg/kg/min",tended to decrease with escalating doses
same,Effect on CO,[1]; [2],no effects
same,Effect on EDV,[1]; [2],no effects
same,Effect on EF,[1]; [2],no effects
same,Effect on ESV,[1]; [2],no effects
same,Effect on HR,[1]; [2],no effects
same,Effect on LVEDP,[1]; [2],no effects
same,Effect on SV,[1]; [2],no effects
same,Effect on SVR,[1]; [2],no effects
same,Effect on mAoP,[1]; [2],no effects
